Values of other authors as cited in publication PMC4158421, “Screening-based discovery of Aspergillus fumigatus plant-type chitinase inhibitors” (Febs Letters, 2014).

System: A. fumigatus biofilm
Parameters: method as in PMID 23314962

## CC(=O)Nc1nnc(S(N)(=O)=O)s1 [acetazolamide]
  effect on A. fumigatus biofilm biomass: reduce A. fumigatus biofilm biomass
